Test results: ChEMBL document CHEMBL3885861, “Open TG-GATES”

Species on record: Rattus norvegicus
Experiment: Open TG-GATES - Regimen: Single
Format: toxicity, organism-based, Sprague-Dawley
Parameters: regimen Single, gender Male, age 6 weeks
Conditions: in vivo, po, 0 mg/kg, route gavage, dose level Control; for APTT / Bas / Eos / Fbg / Hb / Ht / Lym / MCH / MCHC / MCV / Mono / Neu / PT / Plat / RBC / Ret / WBC: tissue Blood; for KIDNEY_L / KIDNEY_R / KIDNEY_TOTAL: tissue Kidney; for LIVER: tissue Liver; for A/G / ALP / ALT / AST / BUN / CRE / Ca / Cl / DBIL / GLC / IP / K / LDH / Na / PL / RALB / TBIL / TC / TG / TP / gamma-GTP: tissue Plasma

SMILES: CCc1cc(C(N)=S)ccn1 [ETHIONAMIDE]
- TERMINAL_BW (3 h): 229.3 g
- APTT (3 h): 16.6 s
- Bas (3 h): 0%
- Eos (3 h): 1%
- Fbg (3 h): 213.4 mg/dL
- Hb (3 h): 14 g/dL
- Ht (3 h): 41.5%
- Lym (3 h): 80.2%
- MCH (3 h): 22.1 pg
- MCHC (3 h): 33.8%
- MCV (3 h): 65.5 fL
- Mono (3 h): 7.2%
- Neu (3 h): 11.6%
- PT (3 h): 11.7 s
- Plat (3 h): 118.5 x10_4/uL
- RBC (3 h): 635.2 x10_4/ul
- Ret (3 h): 7.7%
- WBC (3 h): 98.2 x10_2/uL
- KIDNEY_L (3 h): 1 g
- KIDNEY_R (3 h): 1.1 g
- KIDNEY_TOTAL (3 h): 2.1 g
- LIVER (3 h): 11.4 g
- A/G (3 h): 1.8
- ALP (3 h): 831 IU/L
- ALT (3 h): 31.8 IU/L
- AST (3 h): 64.6 IU/L
- BUN (3 h): 13.6 mg/dL
- CRE (3 h): 0.6 mg/dL
- Ca (3 h): 10.9 mg/dL
- Cl (3 h): 104.8 meq/L
- DBIL (3 h): 0.006 mg/dL
- GLC (3 h): 192.4 mg/dL
- IP (3 h): 8.2 mg/dL
- K (3 h): 4.6 meq/L
- LDH (3 h): 72.6 IU/L
- Na (3 h): 141 meq/L
- PL (3 h): 152.2 mg/dL
- RALB (3 h): 3.5 g/dL
- TBIL (3 h): 0.3 mg/dL
- TC (3 h): 82 mg/dL
- TG (3 h): 86.2 mg/dL
- TP (3 h): 5.4 g/dL
- gamma-GTP (3 h): 1 IU/L
- TERMINAL_BW (6 h): 223.7 g
- APTT (6 h): 18.2 s
- Bas (6 h): 0%
- Eos (6 h): 1%
- Fbg (6 h): 221.6 mg/dL
- Hb (6 h): 14.1 g/dL
- Ht (6 h): 41.9%
- Lym (6 h): 80.6%
- MCH (6 h): 21.8 pg
- MCHC (6 h): 33.5%
- MCV (6 h): 65.2 fL
- Mono (6 h): 7.6%
- Neu (6 h): 11.2%
- PT (6 h): 12.1 s
- Plat (6 h): 124.1 x10_4/uL
- RBC (6 h): 644 x10_4/ul
- Ret (6 h): 7.8%
- WBC (6 h): 114.3 x10_2/uL
- KIDNEY_L (6 h): 1 g
- KIDNEY_R (6 h): 1 g
- KIDNEY_TOTAL (6 h): 2 g
- LIVER (6 h): 10.5 g
- A/G (6 h): 1.6
- ALP (6 h): 729.4 IU/L
- ALT (6 h): 29.6 IU/L
- AST (6 h): 63.6 IU/L
- BUN (6 h): 12 mg/dL
- CRE (6 h): 0.5 mg/dL
- Ca (6 h): 11 mg/dL
- Cl (6 h): 104 meq/L
- DBIL (6 h): 0 mg/dL
- GLC (6 h): 187.6 mg/dL
- IP (6 h): 9.4 mg/dL
- K (6 h): 5 meq/L
- LDH (6 h): 87.8 IU/L
- Na (6 h): 139 meq/L
- PL (6 h): 150 mg/dL
- RALB (6 h): 3.3 g/dL
- TBIL (6 h): 0.4 mg/dL
- TC (6 h): 82.4 mg/dL
- TG (6 h): 86.6 mg/dL
- TP (6 h): 5.4 g/dL
- gamma-GTP (6 h): 1.2 IU/L
- TERMINAL_BW (9 h): 223.4 g
- APTT (9 h): 17.3 s
- Bas (9 h): 0%
- Eos (9 h): 1%
- Fbg (9 h): 213.8 mg/dL
- Hb (9 h): 13.9 g/dL
- Ht (9 h): 41%
- Lym (9 h): 71%
- MCH (9 h): 21.8 pg
- MCHC (9 h): 33.9%
- MCV (9 h): 64.3 fL
- Mono (9 h): 7%
- Neu (9 h): 21.4%
- PT (9 h): 12.1 s
- Plat (9 h): 115.1 x10_4/uL
- RBC (9 h): 639.6 x10_4/ul
- Ret (9 h): 7.9%
- WBC (9 h): 97.9 x10_2/uL
- KIDNEY_L (9 h): 1.1 g
- KIDNEY_R (9 h): 1 g
- KIDNEY_TOTAL (9 h): 2.1 g
- LIVER (9 h): 9.8 g
- A/G (9 h): 1.9
- ALP (9 h): 759.2 IU/L
- ALT (9 h): 31.2 IU/L
- AST (9 h): 59.2 IU/L
- BUN (9 h): 13.2 mg/dL
- CRE (9 h): 0.5 mg/dL
- Ca (9 h): 10.4 mg/dL
- Cl (9 h): 107 meq/L
- DBIL (9 h): 0.024 mg/dL
- GLC (9 h): 194.8 mg/dL
- IP (9 h): 10.2 mg/dL
- K (9 h): 4.7 meq/L
- LDH (9 h): 66.6 IU/L
- Na (9 h): 143.4 meq/L
- PL (9 h): 126.8 mg/dL
- RALB (9 h): 3.6 g/dL
- TBIL (9 h): 0.4 mg/dL
- TC (9 h): 65.8 mg/dL
- TG (9 h): 47.8 mg/dL
- TP (9 h): 5.4 g/dL
- gamma-GTP (9 h): 1.2 IU/L
- TERMINAL_BW (24 h): 237.2 g
- APTT (24 h): 16.3 s
- Bas (24 h): 0%
- Eos (24 h): 1.2%
- Fbg (24 h): 214.4 mg/dL
- Hb (24 h): 13.9 g/dL
- Ht (24 h): 41.1%
- Lym (24 h): 75.6%
- MCH (24 h): 21.8 pg
- MCHC (24 h): 33.7%
- MCV (24 h): 64.7 fL
- Mono (24 h): 7.6%
- Neu (24 h): 15.6%
- PT (24 h): 11.7 s
- Plat (24 h): 117.8 x10_4/uL
- RBC (24 h): 635.6 x10_4/ul
- Ret (24 h): 7.8%
- WBC (24 h): 117.6 x10_2/uL
- KIDNEY_L (24 h): 1 g
- KIDNEY_R (24 h): 1 g
- KIDNEY_TOTAL (24 h): 2.1 g
- LIVER (24 h): 11.8 g
- A/G (24 h): 1.9
- ALP (24 h): 856.4 IU/L
- ALT (24 h): 40.8 IU/L
- AST (24 h): 70.6 IU/L
- BUN (24 h): 20 mg/dL
- CRE (24 h): 0.6 mg/dL
- Ca (24 h): 11 mg/dL
- Cl (24 h): 104.4 meq/L
- DBIL (24 h): 0.016 mg/dL
- GLC (24 h): 200.2 mg/dL
- IP (24 h): 8.1 mg/dL
- K (24 h): 4.7 meq/L
- LDH (24 h): 77.8 IU/L
- Na (24 h): 141.2 meq/L
- PL (24 h): 151.8 mg/dL
- RALB (24 h): 3.6 g/dL
- TBIL (24 h): 0.3 mg/dL
- TC (24 h): 79.8 mg/dL
- TG (24 h): 90.6 mg/dL
- TP (24 h): 5.5 g/dL
- gamma-GTP (24 h): 1.6 IU/L
